Tests used:
Escherichia coli = assay: E. coli growth inhibition by individual components and combinations (CFU count); format: cell-based; details: for CFUs / CFUs/mL: CFU after 24 hours; for reduction of growth of E. coli (in words): component alone
Experimental: (§1) Escherichia coli was grown in the presence of each component or combinations to determine the inhibitory potential. […] The appropriate amount of each component was added to 5 mL of LB media, and each culture was inoculated with 50 μL of a 12 hour old culture of E. coli. The cultures were grown for 12 hours at 37° C. with shaking at 225 rpm before being serial diluted and plated onto solid LB agar plates (5 μL per plate) in triplicate. Plates were incubated for 24 hours at 37° C., and then colonies were counted to determine the inhibitory potential.

[1] = test system: Pseudomonas aeruginosa ATCC 9027; assay: Inhibition assay of essential oils and pairings in base solution, log reduction and synergy; format: cell-based; details: pairing Clove + Geraniol; log reduction of pairing divided by that of the pure oil named
Banded crickets [2] = assay: Residual insecticides against banded crickets (surfaces aged 7 DAT); format: in vivo; details: 0.75 gallons per acre
Experimental: Post-Treatment Arenas: 20 oz. […] A potato cutting was added as a food source. Clean post-treatment arenas were used to contain the test systems after exposure to the test substances.
(§2) The test substances were shaken and then mixed at a rate of 5.324 mL of concentrate per 200 ml of water.
The diluted test substances were adequately shaken prior to applications. A track spraying jig was used to make a linear application. […] This equated to a treatment rate of 0.75 gallons per acre.

E. coli = E. coli growth inhibition, essential oil comparison in the non-essential oil fraction (CFU count); format: cell-based, Escherichia coli; details: oils in non-essential oil fraction
Experimental: as §1
Combinations of essential oils, each at the concentration indicated in Example 1, were assayed for their inhibitory potential in a similar manner as Example 1.
The essential oils were then tested in the non-essential oil fraction for synergy. […] Also, there was increasing antimicrobial action of the essential oils related to the combination of the oils leading to the highest activity found in the Essential Oil-Ark product.

Banded crickets [3] = assay: Direct spray insecticides against banded crickets; format: in vivo; details: 0.75 gallons per acre
Experimental: The Test Arenas were used to contain the test systems during the test substance applications.
Post-Treatment Arenas: 20 oz. SOLO cups with mesh lids were used as post-treatment arenas. A potato cutting was added as a food source. Clean post-treatment arenas were used to contain the test systems after exposure to the test substances.
Application Equipment: A compressed air sprayer with a flat fan nozzle, pressurized to 20 PSI was used to make applications.
as §2
The diluted test substances were adequately shaken prior to applications. A track spraying jig was used to make a linear application. A single cartridge containing 10 test systems was placed in the middle of the spray path. […] This equated to a treatment rate of 0.75 gallons per acre.
The observations were made by raising the test arenas and gently blowing air on the test systems to provoke movement, lightly prodding the test systems, or the test arenas were shaken/agitated to provoke test system movement.
The test systems were transferred from the Treatment Arenas into the clean Post-Treatment Arenas 1 hour after the applications.

[4] = test system: Candida albicans ATCC 10231; assay: Inhibition assay of essential oils and pairings in base solution, log reduction and synergy; format: cell-based; details: log reduction of pairing divided by that of the pure oil named

Row | Compound | CFUs (Escherichia coli) [CFUs] | CFUs/mL (Escherichia coli) [CFUs/mL] | reduction of growth of E. coli (in words) (Escherichia coli) | Synergistic advantage [1] [%] | Average Percent Mortality (Banded crickets [2]; surface aged 7 DAT, 3 DAT) [%] | efficacy as a residual insecticide (in words) (Banded crickets [2]; up to 7 days after treatment) | Avg (E. coli; CFU after 24 hours) | CFUs (E. coli; CFU after 24 hours) [CFUs] | CFUs/mL (E. coli; CFU after 24 hours) [CFUs/mL] | antimicrobial activity (in words) (E. coli) | efficacy as a direct kill insecticide (in words) (Banded crickets [3]) | Average Percent Mortality (Banded crickets [3]; 2 DAT) [%] | Synergistic advantage ([4]; pairing Geraniol + Garlic) [%] | Synergistic advantage ([4]; pairing Geraniol + Peppermint) [%] | Synergistic advantage ([4]; pairing Geraniol + Rosemary) [%] | Synergistic advantage ([4]; pairing Geraniol + Thyme) [%]
1 | CCCCCCCCCCCCCCCCCC(=O)OCC(O)CO (stereo not drawn) [Glyceryl Monostearate] | 8330000 | 166600000 | did not substantially reduce growth of E. coli | – | – | – | – | – | – | – | – | – | – | – | – | –
2 | CC(C)=CCC/C(C)=C/CO [Geraniol] | 2 | 40 | – | 106.3 | 10 | did not provide high levels of mortality | 43.333 | 43333 | 866660 | highest activity of the essential oils | did not provide high levels of mortality | 33 | 120.9 | 103.9 | 103.9 | 103.9
3 | C/C=C/C=C/C(=O)[O-].[K+] [Potassium Sorbate] | 13000000 | 260000000 | did not substantially reduce growth of E. coli | – | – | – | – | – | – | – | – | – | – | – | – | –

Reference: patent US20240358025A1, “INSECT, BACTERIAL, AND/OR FUNGAL CONTROL COMPOSITION” (priority 2021, published 2024)
